Data: patent US8440646B1 (priority 2006, dated 2013)
Converted amounts (≈) assume the structure as drawn. Like-named read-outs stand apart in the source and are kept apart here.

Tests used:
S. aureus MRSA5 = experiment: microbe, parasite or virus in culture; format: cell-based; settings: Staphylococcus aureus
E. faecium 494 = experiment: microbe, parasite or virus in culture; format: cell-based; settings: Enterococcus faecium
S. pneumoniae 700905 [1] = experiment: microbe, parasite or virus in culture; format: cell-based; settings: Streptococcus pneumoniae
E. faecalis 29212 = experiment: microbe, parasite or virus in culture; format: cell-based; settings: Enterococcus faecalis
S. aureus RN450 = experiment: microbe, parasite or virus in culture; format: cell-based; settings: Staphylococcus aureus
S. pneumoniae 157E [2] = experiment: microbe, parasite or virus in culture; format: cell-based; settings: Streptococcus pneumoniae
S. pneumoniae 157E [3] = test system: S. pneumoniae 157E; design: species or system mice; settings: mouse, in vivo
S. pneumoniae 700905 [4] = test system: S. pneumoniae 700905; design: species or system mice; settings: mouse, in vivo
S. pneumoniae 157E [5] = experiment: animal or person; format: in vivo, mice; settings: for efficacy in words: mouse, in vivo
S. aureus RN4250 = experiment: microbe, parasite or virus in culture; format: cell-based; settings: Staphylococcus aureus, RN4250
[6] = test system: Protein synthesis of S. aureus RN450; experiment: microbe, parasite or virus in culture; format: cell-based; settings: for IC50 / IC90: Staphylococcus aureus; for IC50: read-out: Protein synthesis IC50; for IC90: read-out: Protein synthesis IC90
[7] = test system: Peptidoglycan synthesis of S. aureus RN450; experiment: microbe, parasite or virus in culture; format: cell-based; settings: for IC50 / IC90: Staphylococcus aureus; for IC50: read-out: Peptidoglycan synthesis IC50; for IC90: read-out: Peptidoglycan synthesis IC90
[8] = Streptococcus pneumoniae, 157E, in Mus musculus, po, 48 h, read-out: % survival
[9] = Streptococcus pneumoniae, 157E, in Mus musculus, sc, 48 h, read-out: % survival

SMILES	MIC (S. aureus MRSA5)	MIC (E. faecium 494)	MIC (S. pneumoniae 700905 [1])	MIC (E. faecalis 29212)	MIC (S. aureus RN450)	MIC (S. aureus RN4250)	further results
C=CCN(C)Cc1cc(C(C)C)c2c(c1O)C(=O)C1=C(O)[C@]3(O)C(=O)C(C(N)=O)=C(O)[C@@H](N(C)C)[C@@H]3C[C@@H]1C2 [G]	0.5 µg/mL (≈ 0.927 µM)	1 µg/mL (≈ 1.85 µM)	0.06 µg/mL (≈ 0.111 µM)	0.5 µg/mL (≈ 0.927 µM)			
CN(CCCc1cc(N(C)C)c2c(c1O)C(=O)C1=C(O)[C@]3(O)C(=O)C(C(N)=O)=C(O)[C@@H](N(C)C)[C@@H]3C[C@@H]1C2)Cc1ccccc1 [AK]	2 µg/mL (≈ 3.23 µM)		0.5 µg/mL (≈ 0.808 µM)		1 µg/mL (≈ 1.62 µM)		MIC (S. pneumoniae 157E [2]): 0.5 µg/mL (≈ 0.808 µM)
CN(Cc1ccccc1)Cc1cc(N(C)C)c2c(c1O)C(=O)C1=C(O)[C@]3(O)C(=O)C(C(N)=O)=C(O)[C@@H](N(C)C)[C@@H]3C[C@@H]1C2 [Compound I]	1 µg/mL (≈ 1.69 µM)	1 µg/mL (≈ 1.69 µM)	0.5 µg/mL (≈ 0.846 µM)	1 µg/mL (≈ 1.69 µM)			PD50 (S. pneumoniae 157E [3]; iv): 1 mg/kg; PD50 (S. pneumoniae 157E [3]; po): 13.4 mg/kg; oral activity in words (S. pneumoniae 157E [3]; po): exhibited oral activity; PD50 (S. pneumoniae 700905 [4]; iv): 2.2 mg/kg; PD50 (S. pneumoniae 700905 [4]; po): 31.6 mg/kg
CO/N=C(\C)c1cc(CNCC(C)(C)C)c(O)c2c1C[C@H]1C[C@H]3[C@H](N(C)C)C(O)=C(C(N)=O)C(=O)[C@@]3(O)C(O)=C1C2=O [E]	0.25 µg/mL (≈ 0.428 µM)	1 µg/mL (≈ 1.71 µM)	0.06 µg/mL (≈ 0.103 µM)	0.25 µg/mL (≈ 0.428 µM)			responders at 10 mg/kg (S. pneumoniae 157E [5]; [8]): 0%; responders at 5 mg/kg (S. pneumoniae 157E [5]; [9]): 40%
CN(C)[C@@H]1C(O)=C(C(N)=O)C(=O)[C@@]2(O)C(O)=C3C(=O)c4c(O)c(CNCCC(F)(F)F)cc(-c5ncccn5)c4C[C@H]3C[C@@H]12 [J]	0.5 µg/mL (≈ 0.81 µM)	1 µg/mL (≈ 1.62 µM)	0.06 µg/mL (≈ 0.0972 µM)	0.25 µg/mL (≈ 0.405 µM)			
CN(Cc1ccccc1F)Cc1cc(N(C)C)c2c(c1O)C(=O)C1=C(O)[C@]3(O)C(=O)C(C(N)=O)=C(O)[C@@H](N(C)C)[C@@H]3C[C@@H]1C2 [K]	0.5 µg/mL (≈ 0.821 µM)	1 µg/mL (≈ 1.64 µM)	0.25 µg/mL (≈ 0.411 µM)	1 µg/mL (≈ 1.64 µM)			
COC(=O)c1ccc(CNCc2cc(N(C)C)c3c(c2O)C(=O)C2=C(O)[C@]4(O)C(=O)C(C(N)=O)=C(O)[C@H](N(C)C)[C@@H]4C[C@@H]2C3)cc1 [D]	1 µg/mL (≈ 1.58 µM)	1 µg/mL (≈ 1.58 µM)	0.25 µg/mL (≈ 0.394 µM)	0.25 µg/mL (≈ 0.394 µM)			responders at 10 mg/kg (S. pneumoniae 157E [5]; [8]): 0%; responders at 5 mg/kg (S. pneumoniae 157E [5]; [9]): 0%
CN(C)Cc1ccc(-c2ccc(O)c3c2C[C@H]2C[C@H]4[C@H](N(C)C)C(O)=C(C(N)=O)C(=O)[C@@]4(O)C(O)=C2C3=O)cc1 [Compound V]					0.06 µg/mL (≈ 0.11 µM)	0.06 µg/mL (≈ 0.11 µM)	
CN(C)[C@@H]1C(O)=C(C(N)=O)C(=O)[C@@]2(O)C(O)=C3C(=O)c4c(O)ccc(C#Cc5ccccn5)c4C[C@H]3C[C@@H]12 [Z]	0.5 µg/mL (≈ 0.97 µM)				0.13 µg/mL (≈ 0.252 µM)		MIC (S. pneumoniae 157E [2]): 0.06 µg/mL (≈ 0.116 µM)
CC(CF)N(C)Cc1cc(N(C)C)c2c(c1O)C(=O)C1=C(O)[C@]3(O)C(=O)C(C(N)=O)=C(O)[C@@H](N(C)C)[C@@H]3C[C@@H]1C2 (some centres unmarked) [Compound C]	1 µg/mL (≈ 1.78 µM)	0.25 µg/mL (≈ 0.446 µM)	0.25 µg/mL (≈ 0.446 µM)	0.5 µg/mL (≈ 0.892 µM)			responders at 10 mg/kg (S. pneumoniae 157E [5]; [8]): 60%; responders at 5 mg/kg (S. pneumoniae 157E [5]; [9]): 100%; efficacy in words (S. pneumoniae 157E [5]): efficacious
CN(CCC(F)(F)F)Cc1cc(N(C)C)c2c(c1O)C(=O)C1=C(O)[C@]3(O)C(=O)C(C(N)=O)=C(O)[C@@H](N(C)C)[C@@H]3C[C@@H]1C2 [L]	0.5 µg/mL (≈ 0.838 µM)	1 µg/mL (≈ 1.68 µM)	0.75 µg/mL (≈ 1.26 µM)	1 µg/mL (≈ 1.68 µM)			
CN(C)c1cc(CNC2CCCCC2)c(O)c2c1C[C@H]1C[C@H]3[C@H](N(C)C)C(O)=C(C(N)=O)C(=O)[C@@]3(O)C(O)=C1C2=O [B]	1 µg/mL (≈ 1.76 µM)	1 µg/mL (≈ 1.76 µM)	0.5 µg/mL (≈ 0.879 µM)	1 µg/mL (≈ 1.76 µM)			responders at 5 mg/kg (S. pneumoniae 157E [5]; [8]): 40%; responders at 5 mg/kg (S. pneumoniae 157E [5]; [9]): 100%; efficacy in words (S. pneumoniae 157E [5]): efficacious
CN(C)[C@@H]1C(O)=C(C(N)=O)C(=O)[C@@]2(O)C(O)=C3C(=O)c4c(O)ccc(-c5cncc(CN6CCCCC6)c5)c4C[C@H]3C[C@@H]12 [P]					0.06 µg/mL (≈ 0.102 µM)	0.06 µg/mL (≈ 0.102 µM)	
COCCNCc1ccc(-c2ccc(O)c3c2C[C@H]2C[C@H]4[C@H](N(C)C)C(O)=C(C(N)=O)C(=O)[C@@]4(O)C(O)=C2C3=O)cc1 [Y]					0.06 µg/mL (≈ 0.104 µM)	0.06 µg/mL (≈ 0.104 µM)	
CC(C)N(C)Cc1ccc(-c2ccc(O)c3c2C[C@H]2C[C@H]4[C@H](N(C)C)C(O)=C(C(N)=O)C(=O)[C@@]4(O)C(O)=C2C3=O)o1 [Q]					0.06 µg/mL (≈ 0.106 µM)	0.06 µg/mL (≈ 0.106 µM)	
COc1ccc(-c2ccc(O)c3c2C[C@H]2C[C@H]4[C@H](N(C)C)C(O)=C(C(N)=O)C(=O)[C@@]4(O)C(O)=C2C3=O)cc1CN(C)C(C)C [Compound M]					0.06 µg/mL (≈ 0.0991 µM)	0.06 µg/mL (≈ 0.0991 µM)	
CO/N=C/c1cc(-c2ccc(O)c3c2C[C@H]2C[C@H]4[C@H](N(C)C)C(O)=C(C(N)=O)C(=O)[C@@]4(O)C(O)=C2C3=O)ccc1OC [A]	1 µg/mL (≈ 1.73 µM)	1 µg/mL (≈ 1.73 µM)	0.25 µg/mL (≈ 0.433 µM)	1 µg/mL (≈ 1.73 µM)	0.25 µg/mL (≈ 0.433 µM)		IC50 [6]: 1.9 µg/mL (≈ 3.29 µM); IC90 [6]: 5 µg/mL (≈ 8.66 µM); effect on peptidoglycan biosynthesis in words [7]: affect peptidoglycan biosynthesis; IC50 [7]: 2.1 µg/mL (≈ 3.64 µM); IC90 [7]: 3.8 µg/mL (≈ 6.58 µM)
CN(C)[C@@H]1C(O)=C(C(N)=O)C(=O)[C@@]2(O)C(O)=C3C(=O)c4c(O)ccc(C(=O)CN5CCCCC5)c4C[C@H]3C[C@@H]12 [O]					0.06 µg/mL (≈ 0.111 µM)	0.06 µg/mL (≈ 0.111 µM)	macromolecular synthesis profile in words [6]: profile similar to class I compounds; IC50 [6]: 0.33 µg/mL (≈ 0.612 µM); IC90 [6]: 0.92 µg/mL (≈ 1.71 µM); IC50 [7]: > 32 µg/mL; IC90 [7]: > 32 µg/mL
C=CCN(C)Cc1cncc(-c2ccc(O)c3c2C[C@H]2C[C@H]4[C@@H](N(C)C)C(O)=C(C(N)=O)C(=O)[C@@]4(O)C(O)=C2C3=O)c1 [T]					0.06 µg/mL (≈ 0.104 µM)	0.06 µg/mL (≈ 0.104 µM)	
CN(C)[C@@H]1C(O)=C(C(N)=O)C(=O)[C@@]2(O)C(O)=C3C(=O)c4c(O)ccc(CN5CCC(F)CC5)c4C[C@H]3C[C@@H]12 [U]					0.06 µg/mL (≈ 0.113 µM)	0.06 µg/mL (≈ 0.113 µM)	
CCN(CCCC(F)(F)F)Cc1cc(N(C)C)c2c(c1O)C(=O)C1=C(O)[C@]3(O)C(=O)C(C(N)=O)=C(O)[C@@H](N(C)C)[C@@H]3C[C@@H]1C2 [N]	1 µg/mL (≈ 1.6 µM)	0.5 µg/mL (≈ 0.8 µM)	0.13 µg/mL (≈ 0.208 µM)	1 µg/mL (≈ 1.6 µM)			
CN(C)[C@@H]1C(O)=C(C(N)=O)C(=O)[C@@]2(O)C(O)=C3C(=O)c4c(O)ccc(B5OC(C)(C)C(C)(C)O5)c4C[C@H]3C[C@@H]12 [F]	0.5 µg/mL (≈ 0.925 µM)	1 µg/mL (≈ 1.85 µM)	0.25 µg/mL (≈ 0.463 µM)	0.5 µg/mL (≈ 0.925 µM)			responders at 50 mg/kg (S. pneumoniae 157E [5]; [8]): 100%; responders at 5 mg/kg (S. pneumoniae 157E [5]; [9]): 100%
CCCCN(CCCC)Cc1cc(N(C)C)c2c(c1O)C(=O)C1=C(O)[C@]3(O)C(=O)C(C(N)=O)=C(O)[C@@H](N(C)C)[C@@H]3C[C@@H]1C2 [AH]	1 µg/mL (≈ 1.67 µM)	0.25 µg/mL (≈ 0.418 µM)	0.06 µg/mL (≈ 0.1 µM)	0.25 µg/mL (≈ 0.418 µM)			
C[C@H]1c2ccc(CN3CCC(C(F)(F)F)CC3)c(O)c2C(=O)C2=C(O)[C@]3(O)C(=O)C(C(N)=O)=C(O)[C@@H](N(C)C)C3[C@@H](O)C21 (some centres unmarked) [AN]							PD50 (S. pneumoniae 157E [3]; iv): 0.54 mg/kg; PD50 (S. pneumoniae 157E [3]; po): 2.3 mg/kg; PD50 (S. pneumoniae 700905 [4]; iv): 1.4 mg/kg; PD50 (S. pneumoniae 700905 [4]; po): 8.4 mg/kg
COCCOC(=O)Nc1ccc(-c2ccc(O)c3c2C[C@H]2C[C@H]4[C@H](N(C)C)C(O)=C(C(N)=O)C(=O)[C@@]4(O)C(O)=C2C3=O)cc1 [AD]	1 µg/mL (≈ 1.65 µM)		0.5 µg/mL (≈ 0.823 µM)		0.06 µg/mL (≈ 0.0987 µM)		MIC (S. pneumoniae 157E [2]): 0.13 µg/mL (≈ 0.214 µM)
COc1ccc(CN(C)C)c(-c2ccc(O)c3c2C[C@H]2C[C@H]4[C@H](N(C)C)C(O)=C(C(N)=O)C(=O)[C@@]4(O)C(O)=C2C3=O)c1 [X]					0.06 µg/mL (≈ 0.104 µM)	0.06 µg/mL (≈ 0.104 µM)	
CC1CN(C2CCN(Cc3cc(N(C)C)c4c(c3O)C(=O)C3=C(O)[C@]5(O)C(=O)C(C(N)=O)=C(O)[C@@H](N(C)C)[C@@H]5C[C@@H]3C4)CC2)CC(C)O1 (some centres unmarked) [Compound R]	1 µg/mL (≈ 1.5 µM)	1 µg/mL (≈ 1.5 µM)	0.13 µg/mL (≈ 0.195 µM)	2 µg/mL (≈ 2.99 µM)			
CC(C)NCc1ccc(-c2ccc(O)c3c2C[C@H]2C[C@H]4[C@H](N(C)C)C(O)=C(C(N)=O)C(=O)[C@@]4(O)C(O)=C2C3=O)cc1 [W]					0.06 µg/mL (≈ 0.107 µM)	0.06 µg/mL (≈ 0.107 µM)	
